The values that follow come from paper PMC11536076, “Intraoperative Guidance of Pancreatic Cancer Resection Using a Toll-like Receptor 2–Targeted Fluorescence Molecular Imaging Agent” (Cancer Research Communications, 2024).

Molecules are shown by their SMILES.

Series [1] can be described thus: Absorbance and fluorescence emission spectra. The format is physicochemical. The procedure: Absorbance and fluorescence emission spectra were generated using a Tecan Infinite M-1000 PRO multimode microplate reader. Solutions of TLR2L-800 were prepared from a 0.367 mmol/L stock solution in DMSO. Aliquots (2 µL) of TLR2L-800 were spotted on each well of a Tecan NanoQuant plate. The absorbance spectrum of TLR2L-800 (183.5 µmol/L in PBS) was acquired from 230 to 1,000 nm with a wavelength step size of 2 nm. The emission spectrum of TLR2L-800 (0.367 mmol/L in DMSO) was acquired with an excitation wavelength starting from 275 nm and emission wavelengths from 450 to 850 nm with an emission wavelength step size of 2 nm and bandwidth of 5 nm.

On the set-up of series [2]: method as in LI-COR product sheet. As to conditions: unconjugated dye in water; ref LI-COR product sheet; cited from earlier work.

As for `CC1(C)C(=CC=C2CCCC(C=CC3=[N+](CCCCCC(=O)[O-])c4ccc(S(=O)(=O)[O-])cc4C3(C)C)=C2Oc2ccc(S(=O)(=O)[O-])cc2)N(CCCCS(=O)(=O)[O-])c2ccc(S(=O)(=O)[O-])cc21.[Na+].[Na+].[Na+].[Na+]` [IRDye800CW], the Stokes shift in series [1] turned out to be 15 nm. Further, in series [2], the absorbance maxima is listed as 774 nm and the emission maxima was 789 nm.
